From PMC8370666 (Journal of the Iranian Chemical Society, 2021) come the findings set out here.

Some results are limits rather than exact numbers.

Holding throughout (test): biochemical
The target in one assay is SARS-CoV nsp14 (Severe acute respiratory syndrome coronavirus, UniProt P0C6X7). The note with it: for IC50: SARS-Cov nap14 IC50; for inhibition at 50 µM: read-out: % of inhibition at 50 μM, SARs-Cov nsp 14.
Assay [1] has as its target human RNA N7-MTase (hRNMT) (Homo sapiens, UniProt O43148). The class given is biochemical. To be noted: for inhibition at 50 µM: read-out: % of inhibition at 50 μM, hRNMT.
The target in assay [2] is vaccinia virus capping enzyme (D1-D12) (Vaccinia virus, UniProt P04298). The note with it: read-out: % of inhibition at 50 μM, Vaccinia virus D1-D12.

human RNA N7-MTase (hRNMT), sequence (O43148 whole entry): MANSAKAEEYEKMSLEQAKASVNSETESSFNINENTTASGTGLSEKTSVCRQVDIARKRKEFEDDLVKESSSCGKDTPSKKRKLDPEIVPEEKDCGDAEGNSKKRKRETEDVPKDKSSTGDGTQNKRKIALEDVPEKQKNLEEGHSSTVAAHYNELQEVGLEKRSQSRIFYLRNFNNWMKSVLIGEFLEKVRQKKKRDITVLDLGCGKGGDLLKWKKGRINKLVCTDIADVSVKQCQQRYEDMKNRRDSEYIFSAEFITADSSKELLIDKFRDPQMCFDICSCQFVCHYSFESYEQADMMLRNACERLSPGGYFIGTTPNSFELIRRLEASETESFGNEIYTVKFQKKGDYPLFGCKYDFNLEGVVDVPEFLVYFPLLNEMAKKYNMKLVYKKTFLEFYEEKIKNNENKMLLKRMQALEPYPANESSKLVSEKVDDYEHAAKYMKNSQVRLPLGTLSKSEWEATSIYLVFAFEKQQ

Take `N#Cc1c(N)sc2c1CCc1c-2sc(=S)n1-c1ccccc1` [Compound 21a, 7-Amino-3-phenyl-2-thioxo-2,3,4,5-tetrahydrothieno[2',3':3,4]benzo[1,2-d]thiazole-6-carbonitrile]: the figures for the half-inhibitory concentration (IC50) (on SARS-CoV nsp14; in assay [1]) were 18.5 ± 2.68 µM and 56.3 ± 4.62 µM, respectively. Moreover, the inhibition at 50 µM on SARS-CoV nsp14 was found to be 49.2 ± 6.73%; in assay [1] it was 60.3 ± 5.37%; in assay [2], 57.8 ± 5.82%.

For `CCOC(=O)c1c(N)sc2c1CCc1c-2sc(=S)n1-c1ccccc1` [Compound 21b, Ethyl 7-amino-3-phenyl-2-thioxo-2,3,4,5-tetrahydrothieno[2',3':3,4]benzo[1,2-d]thiazole-6-carboxylate], on SARS-CoV nsp14, the IC50 came to 1.08 ± 0.58 µM and the inhibition at 50 µM turned out to be 87.2 ± 5.36%. For the same molecule, in assay [1], the “% of inhibition at 50 μM, hRNMT” value is listed as “high inhibitions”; half-maximal inhibition (IC50) required 0.94 ± 0.36 µM; the inhibition at 50 µM amounted to 88.2 ± 5.38%. The inhibition at 50 µM in assay [2] turned out to be 90.4 ± 6.53%.

On to `N#CC1=C(N)OC2=C(c3sc(=S)n(-c4ccccc4)c3CC2)C1c1ccccc1` (centres unmarked) [Compound 23a, 7-Amino-3,9-diphenyl-2-thioxo-3,4,5,9-tetrahydro-2H-chromeno[6,5-d]thiazole-8-carbonitrile], for which the IC50 at SARS-CoV nsp14 is 32.4 ± 4.58 µM; in assay [1], 24.7 ± 5.47 µM. For the same molecule, the inhibition at 50 µM on SARS-CoV nsp14 turned out to be 56.6 ± 6.72%; in assay [1], 42.7 ± 5.88%; in assay [2], 45.8 ± 6.38%.

Turning to `N#CC1=C(N)OC2=C(c3sc(=S)n(-c4ccccc4)c3CC2)C1c1ccc(Cl)cc1` (centres unmarked) [Compound 23b, 7-Amino-9-(4-chlorophenyl)-3-phenyl-2-thioxo-3,4,5,9-tetrahydro-2H-chromeno[6,5-d]thiazole-8-carbonitrile], at SARS-CoV nsp14, the half-maximal inhibitory concentration (IC50) stood at 0.35 ± 0.15 µM and the inhibition at 50 µM stood at 94.5 ± 6.83%. Further, in assay [1], the “% of inhibition at 50 μM, hRNMT” value is listed as “high inhibitions”; the concentration for half-maximal inhibition (IC50) was below 0.05 µM; the inhibition at 50 µM came out at 96.4 ± 7.24%. For the same molecule, the inhibition at 50 µM in assay [2] came to 96.3 ± 8.92%.

Turning to `CCOC(=O)C1=C(N)OC2=C(c3sc(=S)n(-c4ccccc4)c3CC2)C1c1ccccc1` (centres unmarked) [Compound 23c, Ethyl 7-amino-3,9-diphenyl-2-thioxo-3,4,5,9-tetrahydro-2H-chromeno[6,5-d]thiazole-8-carboxylate], the IC50 at SARS-CoV nsp14 stood at 28.4 ± 3.26 µM; in assay [1] it was 70.3 ± 3.8 µM. Besides, the values for the inhibition at 50 µM (at SARS-CoV nsp14; in assay [1]; in assay [2]) were 64.3 ± 5.53%, 59.3 ± 4.68% and 70.4 ± 5.63%, respectively.

Take `CCOC(=O)C1=C(N)OC2=C(c3sc(=S)n(-c4ccccc4)c3CC2)C1c1ccc(Cl)cc1` (centres unmarked) [Compound 23d, Ethyl 7-amino-9-(4-chlorophenyl)-3-phenyl-2-thioxo-3,4,5,9-tetrahydro-2H-chromeno[6,5-d]thiazole-8-carboxylate]: the IC50 was 0.49 ± 0.13 µM against SARS-CoV nsp14 and below 0.05 µM in assay [1]. For the same molecule, the results for the inhibition at 50 µM (on SARS-CoV nsp14; in assay [1]; in assay [2]) were 57.7 ± 4.26%, 68.6 ± 6.42% and 72.3 ± 5.58%, respectively.
